One series relates to P388/O tumour cells. The series can be described thus: Lymphocytic Leukemia P388/0 Test. To be noted: for 30-Day Survivors: at optimal dose, survivors per 6 animals of the dose group; for % T/C*: ratio of median survival time treated/control x 100 at optimal dose, excluding 30 day survivors, criterion for activity T/C x 100 ≧120%. It counts as in vivo, CD2-F₁ mice. The text has this: Methods for evaluating the antitumor activity of these compounds are essentially those used in the Tumour Panel by the Development Therapeutics Program, Division of Cancer Treatment, National Cancer Institute, A. Goldin et al., Methods in Cancer Research, Vol. XVI, p.165, Academic Press (1979). Some modifications, in dose level and schedule have been made to increase the testing efficiency.
(§1) CD2-F₁ mice, of the same sex weighing within 20+3g, are used for this test. Control and test animals are injected intraperitoneally with a suspension of 10⁶ viable P388/O tumour cells on day 0. In each test several dose levels which bracket the LD₂₀ for the compound are evaluated; each dose level group contains 6 animals. The test compounds are prepared either in physiologic saline containing 0.05% Tween 80 or distilled water containing 5% dextrose and are administered intraperitoneally on days, 1, 5, and 9 relative to tumor implant. Doses are on a mg/kg basis according to individual animals' body weights. the day of death for each animal is recorded, the median identified for each group and the ratios of median survival time for treated (T)/control (C) groups are calculated. The criterion for activity is T/C x 100 ≧120%.

Series [1] in a line: LD20 determined in the P388/0 test. It counts as in vivo. The procedure: as §1
Where [2] appears, read: mice, intraperitoneally on days 1, 5 and 9.

Molecules are shown by their SMILES. Where a name gives a salt, the structure may show the parent alone. A value given as a limit tells only on which side of the number the result lay.

In the case of `CC(CO)(CO)NCc1cc2c(ccc3oc4ccccc4c32)o1.Cl` [Example 7B, 2-(((Benzofuro(5,4-b)benzofuran-2-yl)methyl)amino)-2-methyl-1,3-propanediol hydrochloride], in the series with P388/O tumour cells, the “30-Day Survivors” value is on record as 0/6 and the “% T/C*” value is 138%. The compound also displayed an LD20 in series [1] (setting [2]) of 175 mg/kg.

Turning to `Cl.Cn1cc(CNC(C)(CO)CO)c2ccc3oc4ccccc4c3c21` [Example 13E, 2-Methyl-2-(((1-methyl-1H-benzofuro[2,3-g]indole-3-yl)methyl)amino)-1,3-propanediol Hydrochloride], in the series with P388/O tumour cells, the “30-Day Survivors” value is 0/6 and the “% T/C*” value came out at 120%. Also, the LD20 in series [1] (setting [2]) was 115 mg/kg.

Consider `Cl.Cn1c2ccccc2c2oc3c(CNC(C)(CO)CO)cccc3c21` [Example 1E, 2-Methyl-2-(((10-methyl-10H-benzofuro(3,2-b)indol-6-yl)methyl)amino)-1,3-propanediol Hydrochloride], for which, in the series with P388/O tumour cells, the “30-Day Survivors” value is recorded as 0/6 and the “% T/C*” value turned out to be 210%. In series [1] (setting [2]), the LD20 came to 150 mg/kg.

Take `CC(CO)(CO)NCc1c2ccoc2cc2c1oc1ccccc12.Cl` [Example 9E, 2-(((Benzofuro(5,6-b)benzofuran-4-yl)methyl)amino)-2-methyl 1,3-propanediol Hydrochloride]: in the series with P388/O tumour cells, the “30-Day Survivors” value is 0/6 and the “% T/C*” value came out at 192%. The LD20 in series [1] (setting [2]) was 75 mg/kg.

In the case of `CC(CO)(CO)NCc1cc2cc3oc4ccccc4c3cc2o1.Cl` [Example 10B, 2-(((Benzofuro(5,6-b)benzofuran-2-yl)methyl)amino)-2-methyl-1,3-propanediol Hydrochloride], in the series with P388/O tumour cells, the “30-Day Survivors” value is reported as 0/6 and the “% T/C*” value is on record as 100%. Further, the LD20 in series [1] (setting [2]) was above 675 mg/kg.

In the case of `CC(CO)(CO)NCc1ccc2oc3cc4ccoc4cc3c2c1.Cl` [Example 8H, 2(((Benzofuro(5,6-b)benzofuran-8-yl)methyl)amino)-2-methyl-1,3-propanediol Hydrochloride], in the series on P388/O tumour cells, the “30-Day Survivors” value is listed as 0/6 and the “% T/C*” value is 200%. Besides, in series [1] (setting [2]), the LD20 is listed as 300 mg/kg.

For the compound `Cn1c2ccccc2c2ccc3sc(CNC(C)(CO)CO)cc3c21` [Example 3B, 2-Methyl-2-(((10-methyl-10H-thieno(3,2-a)carbazol-2-yl)methyl)amino)-1,3-propanediol methanesulfonate], in the series with P388/O tumour cells, the “30-Day Survivors” value is 0/6 and the “% T/C*” value came out at 195%. Further, the LD20 in series [1] (mouse, in vivo, ip) is on record as 375 mg/kg.

In the case of `CC(CO)(CO)NCc1ccc2c(c1)oc1ccc3occc3c12.Cl` [Example 4M, 2(((Benzofuro(5,4-b)benzofuran-8-yl)methyl)amino)-2-methyl-1,3-propanediol Hydrochloride], in the series on P388/O tumour cells, the “30-Day Survivors” value is 0/6 and the “% T/C*” value came out at 117%. For the same compound, the LD20 in series [1] (setting [2]) was above 450 mg/kg.

Regarding `Cn1c2ccccc2c2cc(CNC(C)(CO)CO)c3sccc3c21` [Example 2C, 2-Methyl-2-(((10-methyl-10H-thieno(3,2-a)carbazol-4-yl)methyl)amino)-1,3-propanediol methanesulfonate], in the series on P388/O tumour cells, the “30-Day Survivors” value is listed as 0/6 and the “% T/C*” value was 195%. Moreover, in series [1] (mouse, in vivo, ip), the LD20 is on record as 375 mg/kg.

Regarding `CCn1c2ccccc2c2c3c(ccc21)c(CNC(C)(CO)CO)cn3C` [Example 12C, 2-(((6-Ethyl-1,6-dihydro-1-methylpyrrolo[3,2-c]carbazol-3-yl)methyl)-amino)-2-methyl-1,3-propanediol Hydrochloride 0.6 H₂O], in the series on P388/O tumour cells, the “30-Day Survivors” value is reported as 0/6 and the “% T/C*” value came to 113%. Besides, in series [1] (mouse, in vivo, ip), the LD20 is given as 100 mg/kg.

With `CC(CO)(CO)NCc1cc2oc3ccccc3c2c2ccoc12.Cl` [Example 6E, 2-(((Benzofuro(5,4-b)benzofuran-4-yl)methyl)amino)-2-methyl-1,3-propanediol Hydrochloride], in the series with P388/O tumour cells, the “30-Day Survivors” value is 1/6 and the “% T/C*” value was determined as 213%. The LD20 in series [1] (setting [2]) turned out to be 60 mg/kg.

As to `Cn1c2ccccc2c2sc3cc(CNC(C)(CO)CO)ccc3c21` [Example 16, 2-(((10-Methyl-10H-[1]benzothieno[3,2-b]indol-3-yl)methyl)amino)-2-methyl-1,3-propanediol hydrochloride], in the series with P388/O tumour cells, the “30-Day Survivors” value is reported as 0/6 and the “% T/C*” value amounted to 170%. Moreover, the LD20 in series [1] (mouse, in vivo, ip) was determined as 250 mg/kg.

Consider `Cl.Cn1cc(CNC(C)(CO)CO)c2c3sc4ccccc4c3ccc21` [Example 14B, 2-Methyl-2-(((3-methyl-3H-[1]benzothieno[2,3-e]indol-1-yl)methyl)amino)-1,3-propanediol Hydrochloride], for which, in the series on P388/O tumour cells, the “30-Day Survivors” value is given as 0/6 and the “% T/C*” value was determined as 215%. Further, the LD20 in series [1] (setting [2]) is 150 mg/kg.

As to `Cn1c2cccc(CNC(C)(CO)CO)c2c2sc3ccccc3c21` [Example 15D, 2-(((10-Methyl-10H-[1]benzothieno[3,2-b]indol-6-yl)methyl)amino)-2-methyl-1,3-propanediol Hydrochloride], in the series with P388/O tumour cells, the “30-Day Survivors” value is 5/6 and the “% T/C*” value is listed as 140%. Also, in series [1] (mouse, in vivo, ip), the LD20 was found to be 225 mg/kg.

As for `Cl.Cn1cc(CNC(C)(CO)CO)c2ccc3sc4ccccc4c3c21` [Example 11E, 2-Methyl-2-(((1-methyl-1H-[1]benzothieno[2,3]indol-3-yl)methyl)amino)-1,3-propanediol Hydrochloride], in the series on P388/O tumour cells, the “30-Day Survivors” value is 0/6 and the “% T/C*” value came to 135%. In series [1] (setting [2]), this compound displayed an LD20 of 250 mg/kg.

Regarding `CC(CO)(CO)NCc1ccc2oc3ccc4occc4c3c2c1.Cl` [Example 5E, 2-(((Benzofuro(5,4-b)benzofuran-9-yl)methyl)amino)-2-methyl-1,3-propanediol Hydrochloride], in the series with P388/O tumour cells, the “30-Day Survivors” value is on record as 0/6 and the “% T/C*” value was 117%. Moreover, the LD20 in series [1] (setting [2]) was found to be 175 mg/kg.
